In patent US10513494B2, “Methods, compounds, and compositions for anesthesia” (THE BOARD OF TRUSTEES OF THE LELAND STANFORD JUNIOR …, priority 2014, dated 2019):
Like-named read-outs stand apart in the source and are kept apart here.

Experiments:
GABAaR = details: known literature value; read-out: EC50 for GABAaR potentiation; cited from earlier work
[1] = system: American bullfrog Rana catesbeiana tadpoles; experiment: Loss of righting reflex (LORR) in tadpoles; type: in vivo; details: Aquarana catesbeiana, water bath exposure
Description: Anesthesia is defined as the combination of a lack of movement to a given stimulus, lack of awareness, amnesia and analgesia. The surrogate of such is manifest in the tadpole as the loss of righting reflex (LORR). Early prelimb-bud stage American bullfrog Rana catesbeiana tadpoles (5 per 50 ml beaker) were placed in room temperature oxygenated water buffered with 2.5 mM Tris HCl buffer (pH=7.4) and containing a concentration of test compound ranging from 0.11 uM-1 mM. Tadpoles were manually tipped every 5 min with a glass rod or stream of water until their righting reflex response stabilized or 120 minutes elapses. […] At the end of each study, tadpoles were transferred to fresh water to assess whether the anesthetic action was reversible.

native GABA-A receptors = experiment: Electrophysiology in hippocampal brain slices (paired pulse inhibition, CA1); type: cell-based; details: rat hippocampal slice
Description: Brain slices were prepared from male Sprague-Dawley rats that had been deeply anesthetized with isoflurane. The brain was quickly removed and placed in ice-cold artificial cerebrospinal fluid (ACSF) that was saturated with 95% O2 and 5% CO2 (carbogen) to achieve a pH of 7.4. The ACSF was composed of the following ions dissolved in spectrophotometry grade water (EMD Chemicals Inc., Billerica, Mass.) and stated in millimolar concentrations: Na 151.25, Cl 131.5, HCO3 26, K 2.5, Ca 2, Mg 2, SO4 2, H2PO4 1.25, and glucose 10. Coronal brain slices were prepared using a vibratome (Model 1500, Technical Products International Inc., St. Louis, Mo.) and 400-μm-thick slices were hemisected and placed on cellulose filter papers. They were stored at a gas (carbogen)-liquid (ACSF) interface in a holding chamber for at least 1 hour before use. […]
Evoked field potentials were measured using thin-walled glass pipettes (1.0 ID, 1.5 OD; Garner Glass Co., Claremont, Calif.) filled with ACSF. […]
Recorded signals were conditioned using an Axoclamp 2B preamplifier (Axon Instruments, Sunnyvale, Calif.) with a bandpass from DC to 30 kHz and gain of ×10. […] Responses were measured and plotted in real time to ensure that stable baselines (<±2.0% variation) were recorded for at least 20 minutes before the experiments began. […]

[2] = system: American bullfrog Rana catesbeiana tadpoles; experiment: Loss of righting reflex (LORR) in tadpoles; type: in vivo; details: Aquarana catesbeiana; text refers to Table 2; read-out: EC50 for GABAaR potentiation in tadpoles

| Structure (SMILES) | EC50 [1] [µM] | also measured |
| --- | --- | --- |
| CCOC(=O)c1cn(-c2ccc(Cl)cc2Cl)c(-c2ccc(Br)cc2)n1 [Compound 1n] | – | EC50 (GABAaR): 0.19 µM |
| COC(=O)c1cc(-c2ccc(C)c(C)c2)n(-c2ccc(Cl)c(Cl)c2)c1C [H] | > 40 | – |
| Oc1ccccc1 [phenol] | – | EC50 (GABAaR): 920 µM |
| CCOC(=O)c1cc(-c2ccc(Cl)cc2)n(-c2ccccc2)c1C [Compound B] | 0.53 | concentration at which paired pulse inhibition was noted (native GABA-A receptors): 100 µM |
| COC(=O)c1cc(-c2ccc(C)c(C)c2)n(-c2ccc(F)cc2Br)c1C [G] | ~3 | – |
| CCOC(=O)c1cc(C)n(-c2cccc(Cl)c2Cl)c1-c1ccccc1 [M] | ~20 | – |
| COC(=O)c1cc(-c2ccc(C)c(C)c2)n(-c2ccc(Br)cc2)c1C [F] | ~20 | – |
| Cc1cc(C(=O)OCc2c(Cl)cccc2Cl)c(C)n1-c1ccccc1 [C] | ~5 | – |
| COC(=O)c1cc(-c2ccc(Br)cc2)n(-c2ccc(Br)cc2)c1C [K] | ~40 | – |
| Cc1cc(C(=O)OCc2ccc(Cl)cc2)c(C)n1-c1ccc(F)cc1 [E] | ~40 | – |
| COC(=O)c1cc(-c2ccc(Br)cc2)n(-c2cccc(Cl)c2C)c1C [J] | > 40 | – |
| Cc1cc(C(=O)OCc2ccc(Cl)cc2Cl)c(C)n1-c1ccccc1 [D] | ~20 | – |
| CCOC(=O)c1cc(-c2ccc(OC)cc2)n(-c2ccc(Cl)cc2)c1C [Compound A] | 1.5 | EC50 [2]: ~1.5 µM |
